Reference: PMC12336439 (Archiv Der Pharmazie, 2025)
Values joined by “and” are separate entries in the source; they are usually repeats but may differ in a detail not shown here. Identical values can stand only once. Like-named read-outs stand apart in the source and are kept apart here.

Tests used:
[1] = biological target: T1, USP7asoc (active site only cysteine) (Homo sapiens, UniProt Q93009, C300S/C315S/C334S/C478S/C488S/C510S); experiment: Differential scanning fluorimetry (DSF), melting temperature shift of USP7asoc mutant; format: binding; conditions: 8 µM protein, 250 µM compound (1:31.25)
T1 construct: (208‐560, C300/315/334/448/478/510S); made in house
T1 sequence (Q93009 with tags, fused parts or gaps C300S/C315S/C334S/C478S/C488S/C510S): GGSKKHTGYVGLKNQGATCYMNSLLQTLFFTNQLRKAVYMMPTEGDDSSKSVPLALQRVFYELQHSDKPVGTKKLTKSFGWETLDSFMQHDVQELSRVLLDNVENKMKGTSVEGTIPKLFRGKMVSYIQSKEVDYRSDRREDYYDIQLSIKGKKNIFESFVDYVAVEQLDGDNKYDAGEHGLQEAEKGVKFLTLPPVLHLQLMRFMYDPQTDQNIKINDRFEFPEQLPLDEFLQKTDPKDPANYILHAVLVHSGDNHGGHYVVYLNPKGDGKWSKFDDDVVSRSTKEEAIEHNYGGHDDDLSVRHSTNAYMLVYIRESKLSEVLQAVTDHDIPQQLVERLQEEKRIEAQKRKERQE
Experimental: USP7asoc only retains the catalytic Cys223 while all the other six cysteines are mutated to serine. DSF was selected for initial assessment since it is an efficient and rapid primary screening method readily available to our lab. […] An important consideration when assessing covalent inhibitors is the time dependence of covalent target occupancy and thus potency, which is determined by the reaction kinetics of the covalent binding event. To allow for drawing conclusions on compounds with slower reaction kinetics, incubation times of 30 min, 4 h, and 24 h at 20°C were chosen for the DSF screen with USP7 (Table 1 and Figures 2 and 3). The threshold at which compounds were considered (de‐)stabilizers was defined at 0.5°C. In parallel, the intrinsic reactivity of a set of representative compounds was evaluated in a glutathione reactivity assay. […] The expression and purification of USP7 catalytic domain (USP7CD) (208‐560) and USP7asoc (active site only cysteine) by using a pET24a(+)_HLT_USP7 construct were performed as previously described. […] For the USP7asoc, six of the seven cysteines are mutated to serines (208‐560, C300/315/334/448/478/510S). All utilized protein sequences are depicted in Supporting Information S2: Table S.3.1. The melting temperatures of USP7 and USP7asoc in the presence or absence of fragments were determined by DSF on a Qiagen Rotor‐Q Model‐5‐Plex HRM real‐time PCR instrument (Qiagen, Hilden, Germany). SYPRO Orange (Life Technologies Corporation, Eugene, OR, USA) was used as a fluorescent dye at a final concentration of 5x. The protein concentration was 8 µM, and the final compound concentration was 250 µM, corresponding to a protein‐to‐compound ratio of 1:31.25. All compounds were dissolved in dimethyl sulfoxide (DMSO) and the proteins in Tris buffer (25 mM Tris pH 8.0, 150 mM NaCl, 5 mM TCEP, 5% (v/v) DMSO). All measurements were performed after 30 min, 4 h, and 24 h of incubation and at least in triplicate. DSF experiments were carried out with a constant heating rate of 270°C/h. The temperature was ramped from 28°C to 60°C–70°C with excitation and emission filters set at 470 nm and 610 nm, respectively. The melting temperatures (T m) of USP7 and USP7asoc were determined from the maxima of the first derivatives of the melting curves in OriginPro2020 (OriginLab, Northampton, MA, USA). The ∆T m was calculated by subtraction of the T m of the protein sample with pure DMSO from the T m of the protein sample mixed with compound. Error propagation was used to average multiple runs for a compound. A compound was considered to be a hit if the shift in the ∆T m was at least 0.50°C [55].

USP7 [2] = biological target: T2, USP7 (Homo sapiens, UniProt Q93009); experiment: Differential scanning fluorimetry (DSF), melting temperature shift of USP7; format: binding; conditions: 8 µM protein, 250 µM compound (1:31.25)
T2 construct: USP7 catalytic domain (USP7CD) (208‐560); made in house
T2 sequence (Q93009 with tags, fused parts or gaps): as the sequence (Q93009 with tags, fused parts or gaps C300S/C315S/C334S/C478S/C488S/C510S) above, with S96C, S111C, S130C, S274C, S284C, S306C counted along it
Excerpt: The influence of the synthesized compounds on the melting temperature (T m) of USP7 and its mutant USP7asoc (active site only cysteine) was investigated by DSF. USP7asoc only retains the catalytic Cys223 while all the other six cysteines are mutated to serine. DSF was selected for initial assessment since it is an efficient and rapid primary screening method readily available to our lab.
An important consideration when assessing covalent inhibitors is the time dependence of covalent target occupancy and thus potency, which is determined by the reaction kinetics of the covalent binding event. To allow for drawing conclusions on compounds with slower reaction kinetics, incubation times of 30 min, 4 h, and 24 h at 20°C were chosen for the DSF screen with USP7 (Table 1 and Figures 2 and 3). The threshold at which compounds were considered (de‐)stabilizers was defined at 0.5°C. In parallel, the intrinsic reactivity of a set of representative compounds was evaluated in a glutathione reactivity assay. […] Data obtained from the GSH reactivity studies are shown in Supporting Information S2: Table S2.1 and Figures S2.1–2.3.
The melting temperatures of USP7 and USP7asoc in the presence or absence of fragments were determined by DSF on a Qiagen Rotor‐Q Model‐5‐Plex HRM real‐time PCR instrument (Qiagen, Hilden, Germany). SYPRO Orange (Life Technologies Corporation, Eugene, OR, USA) was used as a fluorescent dye at a final concentration of 5x. The protein concentration was 8 µM, and the final compound concentration was 250 µM, corresponding to a protein‐to‐compound ratio of 1:31.25. All compounds were dissolved in dimethyl sulfoxide (DMSO) and the proteins in Tris buffer (25 mM Tris pH 8.0, 150 mM NaCl, 5 mM TCEP, 5% (v/v) DMSO). All measurements were performed after 30 min, 4 h, and 24 h of incubation and at least in triplicate. DSF experiments were carried out with a constant heating rate of 270°C/h. The temperature was ramped from 28°C to 60°C–70°C with excitation and emission filters set at 470 nm and 610 nm, respectively. The melting temperatures (T m) of USP7 and USP7asoc were determined from the maxima of the first derivatives of the melting curves in OriginPro2020 (OriginLab, Northampton, MA, USA). The ∆T m was calculated by subtraction of the T m of the protein sample with pure DMSO from the T m of the protein sample mixed with compound. Error propagation was used to average multiple runs for a compound. A compound was considered to be a hit if the shift in the ∆T m was at least 0.50°C [55].

USP7asoc [3] = biological target: T3, USP7asoc (Homo sapiens, UniProt Q93009, C300S/C315S/C334S/C478S/C488S/C510S); set-up: method as in PMID 40165995; conditions: 24 h incubation at 20°C, ratio 1:31.25; spectra reported previously; cited from earlier work
T3 construct: (208‐560, C300/315/334/448/478/510S); made in house
T3 sequence (Q93009 with tags, fused parts or gaps C300S/C315S/C334S/C478S/C488S/C510S): as the sequence (Q93009 with tags, fused parts or gaps C300S/C315S/C334S/C478S/C488S/C510S) above

USP7 [4] = biological target: T2, USP7; set-up: method as in PMID 40165995; conditions: 24 h incubation at 20°C, ratio 1:31.25; spectra reported previously; cited from earlier work
USP7 [5] = biological target: T2, USP7; experiment: Intact protein MS (UHPLC-ESI-MS), covalent modification of USP7; format: binding; conditions: 24 h incubation at 20°C, protein-to-compound ratio 1:31.25
Experimental: The DSF results described above were validated by UHPLC‐ESI‐MS to verify possible covalent binding through a corresponding mass shift. Intact protein MS is an important screening method in irreversible‐covalent hit identification and is especially suitable for covalent fragment‐based drug discovery (FBDD). It allows for the identification of covalent binders by detecting covalent protein‐compound adducts, thus making use of the stability of the covalent bond.
USP7 was prepared in Tris buffer (25 mM Tris pH 8.0, 150 mM NaCl, 5 mM TCEP) with a protein‐to‐compound ratio of 1:31.25 and 5% (v/v) DMSO. The protein‐compound mixtures were all incubated at 20°C for 24 h on a rotating shaker. The analysis of intact protein mass was carried out using UHPLC‐ESI‐MS measurements, with data acquisition and data analysis as previously described.

USP7asoc [6] = biological target: T3, USP7asoc; experiment: Intact protein MS (UHPLC-ESI-MS), covalent modification of USP7asoc; format: binding; conditions: 24 h incubation at 20°C, protein-to-compound ratio 1:31.25
Experimental: The DSF results described above were validated by UHPLC‐ESI‐MS to verify possible covalent binding through a corresponding mass shift. Intact protein MS is an important screening method in irreversible‐covalent hit identification and is especially suitable for covalent fragment‐based drug discovery (FBDD). It allows for the identification of covalent binders by detecting covalent protein‐compound adducts, thus making use of the stability of the covalent bond. USP7 was prepared in Tris buffer (25 mM Tris pH 8.0, 150 mM NaCl, 5 mM TCEP) with a protein‐to‐compound ratio of 1:31.25 and 5% (v/v) DMSO. The protein‐compound mixtures were all incubated at 20°C for 24 h on a rotating shaker. The analysis of intact protein mass was carried out using UHPLC‐ESI‐MS measurements, with data acquisition and data analysis as previously described.

Structure (SMILES) | ∆T m ± SD USP7asoc ([1]; 30 min incubation at 20°C) | ∆T m ± SD USP7asoc ([1]; 4 h incubation at 20°C) | ∆T m ± SD USP7asoc ([1]; 24 h incubation at 20°C) | ∆T m ± SD USP7 (USP7 [2]; 30 min incubation at 20°C) | ∆T m ± SD USP7 (USP7 [2]; 4 h incubation at 20°C) [°C] | ∆T m ± SD USP7 (USP7 [2]; 24 h incubation at 20°C) | protein species in deconvoluted mass spectrum of USP7asoc (USP7asoc [3]) | protein species in deconvoluted mass spectrum of USP7 (USP7 [4]) | protein species in deconvoluted mass spectrum of USP7 (USP7 [5]) | protein species in deconvoluted mass spectrum of USP7asoc (USP7asoc [6])
Cn1cc(-c2cccc3cnc(Nc4nc(Cl)ccc4[N+](=O)[O-])cc23)cn1 [8a, N‐(6‐Chloro‐3‐nitropyridin‐2‐yl)‐5‐(1‐methyl‐1H‐pyrazol‐4‐yl)isoquinolin‐3‐amine] | 0.10 ± 0.27 °C | 0.10 ± 0.09 °C | 0.10 ± 0.09 °C | 0.20 ± 0.09 °C | 0.45 ± 0 | 0.20 ± 0.09 °C | unmodified protein species as the main peak | unmodified and mono‐arylated protein species were visible with nearly the same intensity |  | 
CCn1cc(-c2cccc3cnc(Nc4nc(Cl)ccc4[N+](=O)[O-])cc23)cn1 [8c, N‐(6‐Chloro‐3‐nitropyridin‐2‐yl)‐5‐(1‐ethyl‐1H‐pyrazol‐4‐yl)isoquinolin‐3‐amine] | 0.05 ± 0.09 °C | 0.25 ± 0.12 °C | 0.33 ± 0.08 °C | –0.15 ± 0.12 °C | 0.15 ± 0 | 0.15 ± 0 °C |  |  | only unmodified USP7 and USP7asoc were detected with a smaller peak corresponding to the single‐arylated protein species | only unmodified USP7 and USP7asoc were detected with a smaller peak corresponding to the single‐arylated protein species
CCCn1cc(-c2cccc3cnc(Nc4nc(Cl)ccc4[N+](=O)[O-])cc23)cn1 [8d, N‐(6‐Chloro‐3‐nitropyridin‐2‐yl)‐5‐(1‐propyl‐1H‐pyrazol‐4‐yl)isoquinolin‐3‐amine] | –0.20 ± 0.09 °C | 0.45 ± 0.12 °C | 0.42 ± 0.16 °C | 0.25 ± 0.09 °C | 0.30 ± 0 | 0.25 ± 0.09 °C |  |  | unmodified USP7 and USP7asoc were again dominant | unmodified USP7 and USP7asoc were again dominant
O=[N+]([O-])c1ccc(Cl)nc1Nc1cc2c(-c3ccc4ccccc4c3)cccc2cn1 [8g, N‐(6‐Chloro‐3‐nitropyridin‐2‐yl)‐5‐(naphthalen‐2‐yl)isoquinolin‐3‐amine] | 0.63 °C and 0.63 ± 0.07 °C | 0.38 ± 0.08 °C | 0.40 ± 0.17 °C | 0.25 ± 0.12 °C | 0.30 ± 0 | 0.25 ± 0.09 °C |  |  | only unmodified USP7 and USP7asoc were detected | only unmodified USP7 and USP7asoc were detected
O=[N+]([O-])c1ccc(Cl)nc1Nc1cc2c(-c3ccc(-c4cccnc4)cc3)cccc2cn1 [8h, N‐(6‐Chloro‐3‐nitropyridin‐2‐yl)‐5‐[4‐(pyridin‐3‐yl)phenyl]isoquinolin‐3‐amine] | 0.15 ± 0 °C | 0.35 ± 0.09 °C | 0.28 ± 0.04 °C | –0.25 ± 0.09 °C | 0.00 ± 0 | 0.05 ± 0.09 °C |  |  | unmodified USP7 and USP7asoc as the main peak | unmodified USP7 and USP7asoc as the main peak
O=[N+]([O-])c1ccc(Cl)nc1Nc1cc2c(-c3ccc(-c4ccncc4)cc3)cccc2cn1 [8i, N‐(6‐Chloro‐3‐nitropyridin‐2‐yl)‐5‐[4‐(pyridin‐4‐yl)phenyl]isoquinolin‐3‐amine] | 0.10 ± 0.17 °C | –0.15 ± 0.15 °C | –0.15 ± 0.12 °C | 0.05 ± 0.09 °C |  | –0.03 ± 0.11 °C |  |  | unmodified USP7 and USP7asoc as the main peak | unmodified USP7 and USP7asoc as the main peak
